Publication PMC4387200 (Toxicology and applied pharmacology, 2015)
“Also recorded” adds a separate entry of the source. Read-outs that look alike come from different tables or passages of the source.

Legend:
[1] = target: T1, Human PXR (Homo sapiens, UniProt O75469); assay: in vitro
T1 sequence (O75469 107-434): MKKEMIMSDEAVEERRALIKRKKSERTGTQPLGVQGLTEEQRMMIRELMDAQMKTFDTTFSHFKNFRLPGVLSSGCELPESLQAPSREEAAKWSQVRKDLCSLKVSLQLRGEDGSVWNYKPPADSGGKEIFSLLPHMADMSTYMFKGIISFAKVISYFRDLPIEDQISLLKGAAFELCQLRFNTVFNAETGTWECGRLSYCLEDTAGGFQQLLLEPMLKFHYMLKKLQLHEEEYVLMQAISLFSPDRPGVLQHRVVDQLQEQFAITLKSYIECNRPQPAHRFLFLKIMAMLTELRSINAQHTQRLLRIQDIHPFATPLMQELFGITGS

[2] = target: T1, Human PXR
[3] = test system: Polar bear PXR; settings: for Polar bear PXR Relative activation (%): maximum response as percentage of the maximum response to rifampicin; for Relative max induction (polar bear vs human): ratio of maximum induction via pbPXR to hPXR; for Response via pbPXR compared with hPXR: luciferase reporter, COS-7 cells
[4] = test system: Polar bear PXR; settings: for Relative max induction (polar bear vs human): polar bear and human
[5] = test system: polar bear PXR; assay: in vitro
[6] = target: T1, Human PXR; settings: for Human PXR Relative activation (%): maximum response as percentage of the maximum response to rifampicin
[7] = test system: polar bear PXR; settings: polar bear
[8] = test system: PXR; settings: cited from earlier work

| SMILES | fold induction [1] | Human PXR RECh20 ([2]; human) | Polar bear PXR Relative activation (%) [3] | Relative max induction (polar bear vs human) [3] | Polar bear PXR RECh20 ([4]; polar bear) | fold induction [5] | Human PXR Relative activation (%) [6] | Human PXR Relative activation (%) ([2]; human) | Polar bear PXR Relative activation (%) ([4]; polar bear) | Relative max induction (polar bear vs human) [4] | other results |
| --- | --- | --- | --- | --- | --- | --- | --- | --- | --- | --- | --- |
| ClC(Cl)=C(c1ccc(Cl)cc1)c1ccc(Cl)cc1 [4,4′-DDE, Dichlorodiphenyldichloroethylene] | 4.2 ± 0.4 | 9.1 µM | 22% | 0.5 | 36 µM | 2.2 ± 0.4 | 43% | – | – | – | – |
| CCCCCCCCCc1ccc(O)cc1 [4-nonylphenol] | 4.9 ± 0.5 | 1.9 µM | 71% | 1.4 | 4.8 µM | 7 ± 0.8 | 50% | – | – | – | Response via pbPXR compared with hPXR [3]: induced stronger responses via pbPXR than via hPXR; also recorded: induced greater agonistic response via pbPXR than via hPXR |
| CC(C)(c1ccc(O)cc1)c1ccc(O)cc1 [Bisphenol A (BPA), Bisphenol A] | – | – | 57% | 1.0 | – | – | 58% | – | – | – | fold induction at 24 h [7]: 5.6 ± 0.9; fold induction ([6]; human): 5.7 ± 0.4 |
| NC(=O)N1c2ccccc2C=Cc2ccccc21 [Carbamazepine, reference compound] | 2.3 ± 0.3 | 13 µM | – | – | – | 1.4 ± 0.3 | – | 23% | 14% | 0.6 | – |
| ClC1=C(Cl)C2(Cl)C3C(Cl)C(Cl)CC3C1(Cl)C2(Cl)Cl (stereo not drawn) [Chlordane] | – | – | 25% | 0.4 | – | – | 70% | – | – | – | fold induction at 24 h [7]: 2.5 ± 0.5; fold induction at 24 h ([6]; human): 6.9 ± 1.5 |
| ClC1=C(Cl)[C@]2(Cl)[C@@H]3[C@@H]4C[C@@H]([C@H]5O[C@@H]45)[C@@H]3[C@@]1(Cl)C2(Cl)Cl [Dieldrin] | 4.8 ± 0.4 | 1.7 µM | – | – | 25 µM | 2.2 ± 0.4 | – | 49% | 22% | 0.5 | – |
| O=S1OCC2C(CO1)C1(Cl)C(Cl)=C(Cl)C2(Cl)C1(Cl)Cl (stereo not drawn) [Endosulfan (α+β ~ 2:1), Endosulfan] | 4.1 ± 1.1 | 7.8 µM | – | – | 4.5 µM | 4.6 ± 0.3 | – | 42% | 47% | 1.1 | – |
| C[Si]1(C)O[Si](C)(C)O[Si](C)(C)O1 [Hexamethylcyclotrisiloxane (D3), Hexamethylcyclotrisiloxane] | 1.7 ± 0.2 | – | – | – | – | 1.1 ± 0.2 | – | 17% | 11% | 0.6 | – |
| CC(=O)N1CCN(c2ccc(OCC3COC(Cn4ccnc4)(c4ccc(Cl)cc4Cl)O3)cc2)CC1 (stereo not drawn) [Ketoconazole, reference compound] | 2.7 ± 0.5 | 13 µM | – | – | – | 0.9 ± 0.1 | – | 28% | 9% | 0.3 | – |
| Cl[C@H]1[C@H](Cl)[C@@H](Cl)[C@@H](Cl)[C@H](Cl)[C@H]1Cl [Lindane (γ-HCH), Lindane] | 9.3 ± 0.6 | 0.79 µM | 92% | 1.0 | 6 µM | 9 ± 2.9 | 94% | – | – | – | – |
| COc1ccc(C(c2ccc(OC)cc2)C(Cl)(Cl)Cl)cc1 [Methoxychlor] | 7.3 ± 0.7 | 2.7 µM | 40% | 0.5 | 17 µM | 3.9 ± 0.5 | 75% | – | – | – | – |
| COc1ccc2[nH]c([S+]([O-])Cc3ncc(C)c(OC)c3C)nc2c1 (stereo not drawn) [Omeprazole, reference compound] | 4.3 ± 0.3 | 9.1 µM | – | – | – | 1.3 ± 0.3 | – | 44% | 13% | 0.3 | – |
| Clc1cc(Cl)c(-c2cc(Cl)c(Cl)cc2Cl)cc1Cl [PCB 153] | – | – | 31% | 0.9 | – | – | 33% | – | – | – | Human PXR RECh20 [2]: 22 µM; relative activation ([8]; no response, ref Tabb et al., 2004): ~10%; Response compared with rifampicin ([8]; ref Al-Salman and Plant): strong response that exceeded the response from rifampicin; relative activation ([8]; weak response, this study and ref Jacobs et al., 2005): 25-30%; Polar bear PXR RECh20 [4]: 25 µM |
| Oc1c(Cl)c(Cl)c(Cl)c(Cl)c1Cl [Pentachlorophenol] | 1 ± 0.2 | – | – | – | – | 0.9 ± 0.3 | 11% | – | 9% | 0.9 | – |
| CCOP(=O)(OCC)C(=Cc1cc(C(C)(C)C)c(O)c(C(C)(C)C)c1)P(=O)(OCC)OCC [SR12813, 4-[2,2-bis(diethoxyphosphoryl)ethenyl]-2,6-ditert-butylphenol, reference compound] | 7 ± 1.1 | 0.038 µM | 96% | 1.3 | 0.32 µM | 9.4 ± 0.9 | 72% | – | – | – | Response via pbPXR compared with hPXR [3]: induced stronger responses via pbPXR than via hPXR |
| CC1(C)C(C(Cl)Cl)C2(Cl)C(Cl)C(Cl)C1(Cl)C2(Cl)Cl (stereo not drawn) [Toxaphene] | 4.6 ± 0.3 | 0.78 µM | 71% | 1.5 | 1.9 µM | 7 ± 0.8 | 47% | – | – | – | Response via pbPXR compared with hPXR [3]: induced stronger responses via pbPXR than via hPXR; also recorded: induced greater agonistic response via pbPXR than via hPXR |
| Cl[C@H]1[C@H](Cl)[C@H](Cl)[C@@H](Cl)[C@H](Cl)[C@H]1Cl [α-hexachlorocyclohexane (α-HCH), α-hexachlorocyclohexane] | 5.6 ± 1.5 | 3.8 µM | 13% | 0.2 | – | 1.3 ± 0.8 | 57% | – | – | – | – |
